The source of these data is patent US9012443B2 (Amgen Inc., priority 2011, dated 2015).

In general, IC50 refers to the concentration that gives 50% inhibition.

Assay [1] concerns the target T1, Nav 1.7 (Homo sapiens (Human), UniProt Q15858). The assay can be described thus: Nav 1.7 in vitro PX assay (PatchXpress whole cell voltage clamp). In kind it is cell-based. The conditions noted are these: 293 cells, human Nav1.7, partially inactivated state; read-out: Nav1.7 PX IC50 IP. The essentials: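 HEK293 cells stably expressing human Nav1.7, whole-cell voltage clamp on PatchXpress, held at potential giving 20–50% inactivation; current elicited by 20 msec pulse to −10 mV.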

Assay [2] deals with T1, Nav 1.7. The assay can be described thus: Nav 1.7 IWQ in vitro assay (IonWorks Quattro population patch-clamp). It counts as cell-based. The conditions noted are these: for IC50: 293 cells stably transfected with Nav 1.7, second part of table, read-out: Nav1.7 IWQ IC50 IP. The essentials:
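HEK293 cells stably expressing Nav 1.7, recorded by automated population patch-clamp with a train of depolarizations producing increasing inactivation. Single compound concentration added during 3–8 min unclamped period, then same protocol repeated. Leak-corrected current at 26th pulse to −20 mV gave percent block (duplicate); IC50 fitted from concentration–block curves.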
Background: The patch-clamp technique gives a direct electrical read-out from membranes.

T1 sequence (Q15858 whole entry): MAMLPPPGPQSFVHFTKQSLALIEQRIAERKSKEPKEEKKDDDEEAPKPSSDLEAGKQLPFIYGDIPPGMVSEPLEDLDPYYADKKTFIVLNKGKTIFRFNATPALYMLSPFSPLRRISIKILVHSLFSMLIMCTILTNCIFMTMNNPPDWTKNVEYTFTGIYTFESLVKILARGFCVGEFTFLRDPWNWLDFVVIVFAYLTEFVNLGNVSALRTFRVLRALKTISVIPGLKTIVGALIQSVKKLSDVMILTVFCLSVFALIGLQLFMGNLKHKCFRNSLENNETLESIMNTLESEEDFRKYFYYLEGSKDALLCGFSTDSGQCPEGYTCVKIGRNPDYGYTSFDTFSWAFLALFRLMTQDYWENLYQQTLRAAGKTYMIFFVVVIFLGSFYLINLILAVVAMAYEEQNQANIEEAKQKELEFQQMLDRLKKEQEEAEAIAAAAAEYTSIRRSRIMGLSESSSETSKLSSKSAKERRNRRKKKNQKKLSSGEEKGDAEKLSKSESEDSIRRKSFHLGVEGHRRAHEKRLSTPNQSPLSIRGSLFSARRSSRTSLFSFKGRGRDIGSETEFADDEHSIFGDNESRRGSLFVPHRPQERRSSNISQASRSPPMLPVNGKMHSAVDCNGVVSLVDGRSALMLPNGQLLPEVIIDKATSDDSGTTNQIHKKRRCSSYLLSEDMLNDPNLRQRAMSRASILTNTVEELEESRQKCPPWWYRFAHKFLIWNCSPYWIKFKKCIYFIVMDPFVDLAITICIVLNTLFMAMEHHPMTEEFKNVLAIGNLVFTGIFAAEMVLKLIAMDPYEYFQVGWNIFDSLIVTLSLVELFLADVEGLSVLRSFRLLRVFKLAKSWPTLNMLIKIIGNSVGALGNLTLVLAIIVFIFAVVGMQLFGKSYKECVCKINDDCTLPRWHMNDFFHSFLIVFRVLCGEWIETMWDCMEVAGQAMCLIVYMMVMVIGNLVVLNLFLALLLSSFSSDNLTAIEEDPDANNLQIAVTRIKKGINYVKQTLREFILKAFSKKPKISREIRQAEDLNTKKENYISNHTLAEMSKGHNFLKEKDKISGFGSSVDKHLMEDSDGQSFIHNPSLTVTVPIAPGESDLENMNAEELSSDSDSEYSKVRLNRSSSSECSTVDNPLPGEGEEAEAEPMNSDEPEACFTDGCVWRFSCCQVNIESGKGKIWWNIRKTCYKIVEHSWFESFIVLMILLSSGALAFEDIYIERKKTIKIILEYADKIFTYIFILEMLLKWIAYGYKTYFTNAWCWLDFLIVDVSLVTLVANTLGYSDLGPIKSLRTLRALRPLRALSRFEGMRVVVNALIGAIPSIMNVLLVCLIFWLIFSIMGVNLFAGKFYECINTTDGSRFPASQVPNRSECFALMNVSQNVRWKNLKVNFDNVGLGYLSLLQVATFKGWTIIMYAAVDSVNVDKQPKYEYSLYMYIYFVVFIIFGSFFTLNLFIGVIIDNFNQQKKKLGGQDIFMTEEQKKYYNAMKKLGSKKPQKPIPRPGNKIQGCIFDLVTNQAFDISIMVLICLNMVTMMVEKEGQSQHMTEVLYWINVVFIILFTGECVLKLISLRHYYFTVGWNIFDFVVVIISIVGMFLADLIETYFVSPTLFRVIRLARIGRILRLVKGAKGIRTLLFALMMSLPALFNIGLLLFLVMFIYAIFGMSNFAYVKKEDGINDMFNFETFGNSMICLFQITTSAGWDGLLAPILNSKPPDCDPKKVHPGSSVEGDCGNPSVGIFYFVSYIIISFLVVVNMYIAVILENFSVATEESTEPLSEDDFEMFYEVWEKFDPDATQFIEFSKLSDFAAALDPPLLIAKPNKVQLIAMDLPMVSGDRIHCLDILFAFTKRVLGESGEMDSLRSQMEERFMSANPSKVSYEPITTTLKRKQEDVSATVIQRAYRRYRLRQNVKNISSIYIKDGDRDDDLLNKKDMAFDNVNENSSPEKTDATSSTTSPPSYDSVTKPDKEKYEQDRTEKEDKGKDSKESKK

As to `COc1cc(C(F)(F)F)ccc1-c1nccc2cc(S(=O)(=O)Nc3ncc(F)s3)ccc12` [Example 198, N-(5-FLUOROTHIAZOL-2-YL)-1-(2-METHOXY-4-(TRIFLUOROMETHYL)PHENYL)ISOQUINOLINE-6-SULFONAMIDE 2,2,2-TRIFLUOROACETATE], the IC50 at Nav 1.7 [1] was 422 nM; on Nav 1.7 [2] it was 40 nM.

As for `COc1cc2ccccc2cc1-c1nccc2cc(S(=O)(=O)Nc3ccncn3)ccc12` [Example 155, 1-(3-METHOXYNAPHTHALEN-2-YL)-N-(PYRIMIDIN-4-YL)ISOQUINOLINE-6-SULFONAMIDE], the IC50 at Nav 1.7 [1] turned out to be 1130 nM; at Nav 1.7 [2], 30 nM.

As to `COc1cc(-c2cccnc2)ccc1-c1nccc2cc(S(=O)(=O)Nc3nccs3)ccc12` [Example 204, 1-(2-METHOXY-4-(PYRIDIN-3-YL)PHENYL)-N-(THIAZOL-2-YL)ISOQUINOLINE-6-SULFONAMIDE], the concentration for half-maximal inhibition (IC50) at Nav 1.7 [1] was 614 nM; on Nav 1.7 [2] it was 30 nM.

Consider `COc1cc(C(F)(F)F)ccc1-c1ncnc2cc(S(=O)(=O)Nc3ncns3)ccc12` [Example 265, 4-(2-METHOXY-4-(TRIFLUOROMETHYL)PHENYL)-N-(1,2,4-THIADIAZOL-5-YL)QUINAZOLINE-7-SULFONAMIDE], for which the results for the half-maximal inhibitory concentration (IC50) at Nav 1.7 [1] and at Nav 1.7 [2] were 150 nM and 20 nM, respectively.

With `Cn1ccnc1-c1cc(C(F)(F)F)ccc1-c1cccc2cc(S(=O)(=O)Nc3ccncn3)ccc12` [Example 124], the IC50 on Nav 1.7 [1] was determined as 502 nM; on Nav 1.7 [2], 60 nM.

As to `COc1ccccc1-c1ccnc2cc(S(=O)(=O)Nc3nccs3)ccc12` [Example 277, 4-(2-METHOXYPHENYL)-N-(THIAZOL-2-YL)QUINOLINE-7-SULFONAMIDE], the figures for the IC50 at Nav 1.7 [1] and at Nav 1.7 [2] were 340 nM and 70 nM, respectively.

As for `O=S(=O)(Nc1nccs1)c1ccc2c([C@H]3CCCN3C3CCOCC3)cccc2c1` [Example 104, (R)-5-(1-(TETRAHYDRO-2H-PYRAN-4-YL)PYRROLIDIN-2-YL)-N-(THIAZOL-2-YL)NAPHTHALENE-2-SULFONAMIDE COMPOUND WITH DIETHYLAMINE (1:1)], the values for the IC50 on Nav 1.7 [1] and on Nav 1.7 [2] were 1990 nM and 80 nM, respectively.

Regarding `COC(=O)c1cccc2cc(S(=O)(=O)Nc3ncns3)ccc12` [Example 318, METHYL 6-(N-(1,2,4-THIADIAZOL-5-YL)SULFAMOYL)-1-NAPHTHOATE], the IC50 at Nav 1.7 [1] was 37400 nM; on Nav 1.7 [2] it was > 10000 nM. Besides, on Nav 1.7 [2] (at […]), the “Nav1.7 Single Point Data IWQ (at […]) (%)” value is reported as 32%.

Consider `COc1cc(-c2cccc(C#N)c2)ccc1-c1nccc2cc(S(=O)(=O)Nc3ccncn3)ccc12` [Example 200, 1-(3′-CYANO-3-METHOXY-[1,1′-BIPHENYL]-4-YL)-N-(PYRIMIDIN-4-YL)ISOQUINOLINE-6-SULFONAMIDE], for which the IC50 stood at 424 nM on Nav 1.7 [1] and 30 nM at Nav 1.7 [2].

Consider `CN1CCN(c2cc(C(F)(F)F)ccc2-c2cccc3cc(S(=O)(=O)Nc4nccs4)ccc23)CC1` [Example 84, 5-(2-(4-METHYLPIPERAZIN-1-YL)-4-(TRIFLUOROMETHYL)PHENYL)-N-(THIAZOL-2-YL)NAPHTHALENE-2-SULFONAMIDE 2,2,2-TRIFLUOROACETATE], for which the IC50 was 588 nM on Nav 1.7 [1] and 110 nM at Nav 1.7 [2].

For `COc1cc(NS(=O)(=O)c2ccc3c(-c4ccc(C(F)(F)F)cc4OC)nccc3c2)ncn1` [Example 181, 1-(2-METHOXY-4-(TRIFLUOROMETHYL)PHENYL)-N-(6-METHOXYPYRIMIDIN-4-YL)ISOQUINOLINE-6-SULFONAMIDE], the IC50 on Nav 1.7 [1] was determined as 1560 nM; at Nav 1.7 [2], 110 nM.

As for `COc1cc(C(F)(F)F)ccc1-c1nccc2cc(S(=O)(=O)Nc3ncccn3)ccc12` [Example 188, 1-(2-METHOXY-4-(TRIFLUOROMETHYL)PHENYL)-N-(PYRIMIDIN-2-YL)ISOQUINOLINE-6-SULFONAMIDE], the IC50 amounted to 3540 nM at Nav 1.7 [1] and 200 nM at Nav 1.7 [2].

With `COc1cc(C(F)(F)F)ccc1-c1nc(N(C)C)cc2cc(S(=O)(=O)Nc3nccs3)ccc12` [Example 223, 3-(DIMETHYLAMINO)-1-(2-METHOXY-4-(TRIFLUOROMETHYL)PHENYL)-N-(THIAZOL-2-YL)ISOQUINOLINE-6-SULFONAMIDE], the IC50 at Nav 1.7 [1] came to 6520 nM; at Nav 1.7 [2] it was 1100 nM.

`O=S(=O)(Nc1nccs1)c1ccc2c(-c3ccc(C(F)(F)F)cc3-n3ccnc3)nccc2c1` [Example 229, 1-(2-(1H-IMIDAZOL-1-YL)-4-(TRIFLUOROMETHYL)PHENYL)-N-(THIAZOL-2-YL)ISOQUINOLINE-6-SULFONAMIDE]: the IC50 on Nav 1.7 [1] was 420 nM; at Nav 1.7 [2], 10 nM.

Turning to `O=S(=O)(Nc1nccs1)c1ccc2c(-c3ccc(C(F)(F)F)cc3Cl)ccnc2c1` [Example 278, 4-(2-CHLORO-4-(TRIFLUOROMETHYL)PHENYL)-N-(THIAZOL-2-YL)QUINOLINE-7-SULFONAMIDE], the IC50 at Nav 1.7 [1] worked out at 2020 nM; on Nav 1.7 [2], 220 nM.

On to `O=S(=O)(Nc1ncns1)c1ccc2c(N3CCCC3c3ccncc3)cccc2c1` (stereo not shown) [Example 88], for which the values for the IC50 on Nav 1.7 [1] and on Nav 1.7 [2] were 238 nM and 20 nM, respectively.

In the case of `COc1cc(Cl)ccc1-c1ncc(F)c2cc(S(=O)(=O)Nc3ccncn3)ccc12` [Example 217, 1-(4-CHLORO-2-METHOXYPHENYL)-4-FLUORO-N-(PYRIMIDIN-4-YL)ISOQUINOLINE-6-SULFONAMIDE], the IC50 at Nav 1.7 [1] worked out at 692 nM; at Nav 1.7 [2], 40 nM.

For the molecule `COc1cc(C(F)(F)F)ccc1-c1ncc(OC)c2cc(S(=O)(=O)Nc3nccs3)ccc12` [Example 231, 4-METHOXY-1-(2-METHOXY-4-(TRIFLUOROMETHYL)PHENYL)-N-(THIAZOL-2-YL)ISOQUINOLINE-6-SULFONAMIDE 2,2,2-TRIFLUOROACETATE], the 50% inhibitory concentration (IC50) is 270 nM on Nav 1.7 [1] and 40 nM at Nav 1.7 [2].

In the case of `COc1cc(C2CC2)ccc1-c1cccc2cc(S(=O)(=O)Nc3ccncn3)ccc12` [Example 125], the values for the half-maximal inhibitory concentration (IC50) on Nav 1.7 [1] and on Nav 1.7 [2] were 631 nM and 40 nM, respectively.

Take `COc1cccc(OC)c1-c1nccc2cc(S(=O)(=O)Nc3ccncn3)ccc12` [Example 171, 1-(2,6-DIMETHOXYPHENYL)-N-(PYRIMIDIN-4-YL)ISOQUINOLINE-6-SULFONAMIDE]: the IC50 was 23000 nM on Nav 1.7 [1] and 730 nM on Nav 1.7 [2].

As to `O=S(=O)(Nc1nccs1)c1ccc2c(-c3ccc(F)cc3O)nccc2c1` [Example 189, 1-(4-FLUORO-2-HYDROXYPHENYL)-N-(THIAZOL-2-YL)ISOQUINOLINE-6-SULFONAMIDE], the half-inhibitory concentration (IC50) turned out to be 5960 nM on Nav 1.7 [1] and 460 nM on Nav 1.7 [2].

Turning to `O=S(=O)(Nc1nccs1)c1ccc2c(N3CCC[C@@H]3c3ccccc3)nccc2c1` [Example 238, (R)-1-(2-phenylpyrrolidin-1-yl)-N-(thiazol-2-yl)isoquinoline-6-sulfonamide], the IC50 at Nav 1.7 [1] was found to be 770 nM; at Nav 1.7 [2], 140 nM.

On to `COc1cc(C(F)(F)F)ccc1-c1nccc2cc(S(=O)(=O)Nc3nccs3)cnc12` [Example 291, 8-(2-METHOXY-4-(TRIFLUOROMETHYL)PHENYL)-N-(THIAZOL-2-YL)-1,7-NAPHTHYRIDINE-3-SULFONAMIDE], for which the values for the IC50 on Nav 1.7 [1] and on Nav 1.7 [2] were 2530 nM and 160 nM, respectively.

On to `COc1cc(C(F)(F)F)ccc1-c1ncc(C#N)c2cc(S(=O)(=O)Nc3nccs3)ccc12` [Example 240, 4-CYANO-1-(2-METHOXY-4-(TRIFLUOROMETHYL)PHENYL)-N-(THIAZOL-2-YL)ISOQUINOLINE-6-SULFONAMIDE], for which the concentration for half-maximal inhibition (IC50) turned out to be 390 nM at Nav 1.7 [1] and 190 nM on Nav 1.7 [2].

`COc1cc(C(F)(F)F)ccc1-c1cncc2cc(S(=O)(=O)Nc3nccs3)ccc12` [Example 288, 4-(2-METHOXY-4-(TRIFLUOROMETHYL)PHENYL)-N-(THIAZOL-2-YL)ISOQUINOLINE-7-SULFONAMIDE]: the IC50 at Nav 1.7 [1] came out at 600 nM; at Nav 1.7 [2], 40 nM.

Consider `COc1cc(C(F)(F)F)ccc1-c1ncc(F)c2cc(S(=O)(=O)Nc3nccs3)ccc12` [Example 212, 4-FLUORO-1-(2-METHOXY-4-(TRIFLUOROMETHYL)PHENYL)-N-(THIAZOL-2-YL)ISOQUINOLINE-6-SULFONAMIDE], for which the IC50 turned out to be 269 nM on Nav 1.7 [1] and 30 nM at Nav 1.7 [2].

Turning to `CNc1cc2cc(S(=O)(=O)Nc3nccs3)ccc2c(-c2ccc(C(F)(F)F)cc2OC)n1` [Example 222, 1-(2-METHOXY-4-(TRIFLUOROMETHYL)PHENYL)-3-(METHYLAMINO)-N-(THIAZOL-2-YL)ISOQUINOLINE-6-SULFONAMIDE], the IC50 amounted to 905 nM at Nav 1.7 [1] and 20 nM on Nav 1.7 [2].

Take `COc1ccc(C)cc1-c1nccc2cc(S(=O)(=O)Nc3ccncn3)ccc12` [Example 149]: the values for the IC50 on Nav 1.7 [1] and on Nav 1.7 [2] were 2400 nM and 60 nM, respectively.

For the molecule `O=S(=O)(Nc1nccs1)c1ccc2c(N3CCCC3c3ccccc3)nccc2c1` (stereo not shown) [Example 237, 1-(2-PHENYLPYRROLIDIN-1-YL)-N-(THIAZOL-2-YL)ISOQUINOLINE-6-SULFONAMIDE], the IC50 stood at 1230 nM on Nav 1.7 [1] and 740 nM on Nav 1.7 [2].

`COc1cc(Cl)ccc1-c1ncc(F)c2cc(S(=O)(=O)Nc3nccs3)ccc12` [Example 215, 1-(4-CHLORO-2-METHOXYPHENYL)-4-FLUORO-N-(THIAZOL-2-YL)ISOQUINOLINE-6-SULFONAMIDE]: the half-inhibitory concentration (IC50) was found to be 86 nM on Nav 1.7 [1] and 20 nM at Nav 1.7 [2].

As for `O=S(=O)(Nc1ncc(F)s1)c1ccc2c(-c3ccc(C(F)(F)F)cc3-n3ccnc3)cccc2c1` [Example 112], the half-inhibitory concentration (IC50) at Nav 1.7 [1] turned out to be 459 nM; at Nav 1.7 [2], 100 nM.

With `COc1cc(C(F)(F)F)ccc1-c1c(C#N)cnc2cc(S(=O)(=O)Nc3nccs3)ccc12` [Example 284, 3-CYANO-4-(2-METHOXY-4-(TRIFLUOROMETHYL)PHENYL)-N-(THIAZOL-2-YL)QUINOLINE-7-SULFONAMIDE], the figures for the IC50 at Nav 1.7 [1] and at Nav 1.7 [2] were 320 nM and 60 nM, respectively.

On to `CS(=O)(=O)c1cc(C(F)(F)F)ccc1-c1cccc2cc(S(=O)(=O)Nc3ccncn3)ccc12` [Example 117], for which the results for the IC50 on Nav 1.7 [1] and on Nav 1.7 [2] were 2880 nM and 180 nM, respectively.
